By IC50 is commonly meant the point on the concentration scale where inhibition reaches its midpoint.

One experiment addresses T1, human NaPi-IIb (Homo sapiens, UniProt O95436).
T1 construct: expressed in transfected cells
T1 sequence (O95436 1-690): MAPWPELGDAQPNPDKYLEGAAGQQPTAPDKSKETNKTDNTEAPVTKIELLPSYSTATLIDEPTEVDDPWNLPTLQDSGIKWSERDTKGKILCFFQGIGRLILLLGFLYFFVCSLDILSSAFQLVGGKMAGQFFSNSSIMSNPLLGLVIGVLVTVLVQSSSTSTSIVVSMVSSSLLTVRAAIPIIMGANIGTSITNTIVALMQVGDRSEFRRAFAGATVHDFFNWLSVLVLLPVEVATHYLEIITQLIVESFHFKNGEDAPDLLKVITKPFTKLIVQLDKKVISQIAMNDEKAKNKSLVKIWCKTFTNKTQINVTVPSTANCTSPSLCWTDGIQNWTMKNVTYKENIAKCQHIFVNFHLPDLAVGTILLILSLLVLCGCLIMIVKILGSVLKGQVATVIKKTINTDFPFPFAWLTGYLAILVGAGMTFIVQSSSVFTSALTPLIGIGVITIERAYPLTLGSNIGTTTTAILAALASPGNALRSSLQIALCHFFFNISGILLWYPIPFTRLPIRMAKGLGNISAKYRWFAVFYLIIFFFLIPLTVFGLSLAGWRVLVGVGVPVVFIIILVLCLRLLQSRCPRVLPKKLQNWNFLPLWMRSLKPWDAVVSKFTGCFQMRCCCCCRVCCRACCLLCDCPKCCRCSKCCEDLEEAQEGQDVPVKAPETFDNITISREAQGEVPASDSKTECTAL
The experiment is described as follows: Inhibitory effect on 33PO4 uptake into human NaPi-IIb-expressing CHO cells. It is filed as cell-based. The settings on record: read-out: IC50. Summed up:
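Uptake of ³³PO4 was measured by scintillation counting after ice-cold buffer A washes. Cells were CHO stably expressing human NaPi-IIb, seeded overnight, and exposed to ³³PO4 in buffer A at room temperature.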
Take `COC(=O)c1cccc(-c2cc(C(F)(F)F)ccc2NC(=O)C2=C(O)[C@@]3(C)CCCN3N(Cc3cccc(F)c3F)C2=O)c1OC` [Example 65]: the IC50 was 16.2 µM.

As to `C[C@]12CCCN1N(Cc1cccc(F)c1Cl)C(=O)C(C(=O)Nc1cc(F)c(Br)c(F)c1)=C2O` [Example 174], the IC50 worked out at 2.2 µM.

`C[C@]12CCCN1N(Cc1cccc(OC(F)F)c1)C(=O)C(C(=O)Nc1ccc(C(F)(F)F)cc1-c1ccc(C(F)(F)F)nc1)=C2O` [Example 167]: the IC50 was 4.3 µM.

On to `C[C@]12CCCN1N(Cc1ccccc1F)C(=O)C(C(=O)Nc1ccc(C(F)(F)F)cc1-c1ccc(C(F)(F)F)nc1)=C2O` [Example 200], for which the IC50 is 1.3 µM.

On to `CN1N(Cc2cccc(F)c2F)C(=O)C(C(=O)Nc2ccc(C(F)(F)F)nc2-c2cncc(C(F)(F)F)c2)=C(O)C1(C)C` [Example 306], for which the IC50 was determined as 8.4 µM.

Take `C[C@]12CCCN1N(Cc1ccc(OCCN3CCOCC3)c(F)c1F)C(=O)C(C(=O)Nc1ccc(Cl)cc1-c1ccc(C(F)(F)F)nc1)=C2O` [Example 102]: the IC50 was 10.9 µM.

Take `CSc1ncc(-c2cc(C(F)(F)F)ccc2NC(=O)C2=C(O)[C@@]3(C)CCCN3N(Cc3ccc(OCCN4CCOCC4)c(F)c3F)C2=O)cn1` [Example 104]: the IC50 is 10.8 µM.

With `CN1N(Cc2cccc(F)c2F)C(=O)C(C(=O)Nc2ccc(C(F)(F)F)nc2-c2ccc(C(F)(F)F)nc2)=C(O)C1(C)C` [Example 304], the IC50 was 3.5 µM.

Turning to `C[C@]12CCCN1N(CCCC(F)(F)F)C(=O)C(C(=O)Nc1ccc(C(F)(F)F)cc1-c1cc(C(F)(F)F)ncn1)=C2O` [Example 234], the IC50 was 9.4 µM.

For `CN1N(Cc2ccc(OCCCCCCC(=O)O)c(F)c2F)C(=O)C(C(=O)Nc2ccc(C(F)(F)F)cc2-c2cc(C(F)(F)F)ncn2)=C(O)C12CCCC2` [Example 335], the IC50 was found to be 8.7 µM.

For the compound `CC(C)[C@H]1C(O)=C(C(=O)Nc2ccc(C(F)(F)F)cc2-c2cc(C(F)(F)F)ncn2)C(=O)N(Cc2cccc(F)c2F)N1C` [Example 252], the IC50 came to 9.5 µM.

As to `COc1cc(-c2cc(C(F)(F)F)ccc2NC(=O)C2=C(O)[C@@]3(C)CCCN3N(Cc3cccc(F)c3F)C2=O)cnc1C#N` [Example 114, (4aR)—N-[2-(6-Cyano-5-methoxypyridin-3-yl)-4-(trifluoromethyl)phenyl]-1-[(2,3-difluorophenyl)methyl]-4-hydroxy-4a-methyl-2-oxo-6,7-dihydro-5H-pyrrolo[1,2-b]pyridazine-3-carboxamide], the IC50 worked out at 7.9 µM.

For the compound `C[C@]12CCCN1N(Cc1ccc(OCCN3CCOCC3)c(Cl)c1)C(=O)C(C(=O)Nc1ccc(C(F)(F)F)cc1-c1ccc(C(F)(F)F)nc1)=C2O` [Example 149, (4aR)-1-[[3-Chloro-4-(2-morpholin-4-ylethoxy)phenyl]methyl]-4-hydroxy-4a-methyl-2-oxo-N-[4-(trifluoromethyl)-2-[6-(trifluoromethyl)pyridin-3-yl]phenyl]-6,7-dihydro-5H-pyrrolo[1,2-b]pyridazine-3-carboxamide], the IC50 was determined as 19.7 µM.

Regarding `CN1[C@@H](C(C)(C)C)C(O)=C(C(=O)Nc2ccc(C(F)(F)F)cc2-c2ccnc(C#N)c2)C(=O)N1Cc1ccc(OCCN2CCOCC2)c(F)c1F` [Example 271], the IC50 was 17.3 µM.

As to `COC(=O)c1cccc(CN2C(=O)C(C(=O)Nc3ccc(C(F)(F)F)cc3-c3cc(C(F)(F)F)ncn3)=C(O)[C@@]3(C)CCCN23)c1` [Example 183], the IC50 turned out to be 9.1 µM.

As for `Cc1c(-c2cc(C(F)(F)F)ccc2NC(=O)C2=C(O)C3(CCC3)N(C)N(Cc3ccc(OCCN4CCOCC4)c(F)c3F)C2=O)ncnc1C(F)(F)F` [Example 285], the IC50 came to 8.5 µM.

In the case of `C[C@]12CCCN1N(Cc1cccc(Cl)c1)C(=O)C(C(=O)Nc1ccc(C(F)(F)F)cc1-c1cc(C(F)(F)F)ncn1)=C2O` [Example 181], the IC50 is 4.8 µM.

On to `Cc1nc(NC(=O)C2=C(O)[C@H](C(C)(C)C)N(C)N(Cc3cccc(F)c3F)C2=O)ccc1Br` [Example 241], for which the 50% inhibitory concentration (IC50) worked out at 16.5 µM.

For `C[C@]12CCCN1N(Cc1ccc(C#CCN3CCCC3=O)c(F)c1F)C(=O)C(C(=O)Nc1ccc(Br)c(F)c1)=C2O` [Example 131], the IC50 worked out at 15.3 µM.

Regarding `Cc1cc(-c2cc(C(F)(F)F)ccc2NC(=O)C2=C(O)[C@@]3(C)CCCN3N(Cc3cccc(F)c3F)C2=O)cnc1C#N` [Example 101], the IC50 stood at 9.4 µM.

As to `COc1cccc(CN2C(=O)C(C(=O)Nc3ccc(C(F)(F)F)cc3-c3ccc(C(F)(F)F)nc3)=C(O)[C@@]3(C)CCCN23)c1OC` [Example 175], the IC50 was 3.4 µM.

As for `CN1[C@@H](C(C)(C)C)C(O)=C(C(=O)Nc2ccc(C(F)(F)F)cc2-c2ccc(C(F)(F)F)nc2)C(=O)N1Cc1ccc(OCCN2CCOCC2)c(F)c1F` [Example 266], the half-inhibitory concentration (IC50) turned out to be 11.6 µM.

For the compound `Cc1c(C#N)ncnc1-c1cc(C(F)(F)F)ccc1NC(=O)C1=C(O)C2(CCC2)N(C)N(Cc2ccc(OCCN3CCOCC3)c(F)c2F)C1=O` [Example 283], the IC50 turned out to be 17.7 µM.

For the compound `C[C@]12CCCN1N(Cc1cccc(F)c1F)C(=O)C(C(=O)Nc1ccc(C(F)(F)F)cc1-c1cncc(C(F)(F)F)c1)=C2O` [Example 91], the IC50 is 15.7 µM.

On to `CN1N(Cc2ccc(OCCN3[C@@H]4COC[C@H]3C4)c(F)c2F)C(=O)C(C(=O)Nc2ccc(C(F)(F)F)cc2-c2cc(C(F)(F)F)ncn2)=C(O)C12CCC2` [Example 339], for which the IC50 was found to be 19.1 µM.

In the case of `CN1N(Cc2cccc(F)c2F)C(=O)C(C(=O)Nc2ccc(Cl)cc2-c2ccc(C(F)(F)F)nc2)=C(O)C1(C)C` [Example 309], the IC50 amounted to 6.5 µM.

Consider `CCCCCN1C(=O)C(C(=O)Nc2ccc(C(F)(F)F)cc2-c2ccc(C(F)(F)F)nc2)=C(O)[C@@]2(C)CCCN12` [Example 26], for which the IC50 worked out at 2.2 µM.

Regarding `CN1[C@@H](C(C)(C)C)C(O)=C(C(=O)Nc2ccc(C(F)(F)F)cc2C(F)(F)F)C(=O)N1Cc1ccc(OCCN2CCOCC2)c(F)c1F` [Example 277], the IC50 was 17.8 µM.

Consider `CN1N(Cc2cccc(F)c2F)C(=O)C(C(=O)Nc2ccc(C(F)(F)F)cc2-c2ncnc(C#N)c2Cl)=C(O)C1(C)C` [Example 312], for which the IC50 worked out at 6.3 µM.

The experiment is the same for the next values; noted with them: read-out: IC50 against 33PO4 uptake into human NaPi-IIb-expressing cells.
`CC(CN1CCOCC1)Oc1ccc(CN2C(=O)C(C(=O)Nc3ccc(C(F)(F)F)cc3-c3cc(C(F)(F)F)ncn3)=C(O)C3(CCC3)N2C)c(F)c1F` (centres unmarked) [Example 408]: the IC50 is 14.6 µM.

Consider `COC(=O)[C@@H]1CCCN1CCOc1ccc(CN2C(=O)C(C(=O)Nc3ccc(C(F)(F)F)cc3-c3cc(C(F)(F)F)ncn3)=C(O)C3(CCC3)N2C)c(F)c1F` [Example 355], for which the IC50 stood at 15 µM.

As to `CC(=O)N(C)CCN(C)CCOc1ccc(CN2C(=O)C(C(=O)Nc3ccc(C(F)(F)F)cc3-c3cc(C(F)(F)F)ncn3)=C(O)C3(CCC3)N2C)c(F)c1F` [Example 354], the IC50 was determined as 26 µM.

As for `CN1N(Cc2ccc(OCCCOCCCO)c(F)c2F)C(=O)C(C(=O)Nc2ccc(C(F)(F)F)cc2-c2cc(C(F)(F)F)ncn2)=C(O)C12CCCC2` [Example 398], the IC50 turned out to be 9.9 µM.

For the compound `CN1N(Cc2ccc(OCCOCCOCCOCCNC(=O)[C@@H](O)[C@H](O)[C@@H](O)[C@@H](O)CO)c(F)c2F)C(=O)C(C(=O)Nc2ccc(C(F)(F)F)cc2-c2cc(C(F)(F)F)ncn2)=C(O)C12CCCC2` [Example 428, 7-[[2,3-Difluoro-4-[2-[2-[2-[2-[[(2S,3R,4S,5S)-2,3,4,5,6-pentahydroxyhexanoyl]amino]ethoxy]ethoxy]ethoxy]ethoxy]phenyl]methyl]-10-hydroxy-6-methyl-8-oxo-N-[4-(trifluoromethyl)-2-[6-(trifluoromethyl)pyrimidin-4-yl]phenyl]-6,7-diazaspiro[4.5]dec-9-ene-9-carboxamide], the IC50 amounted to 23 µM.

`CN1N(Cc2ccc(OCCN3CCN(CCOCCO)CC3)c(F)c2F)C(=O)C(C(=O)Nc2ccc(C(F)(F)F)cc2-c2cc(C(F)(F)F)ncn2)=C(O)C12CCC2` [Example 361]: the IC50 was 20.2 µM.

For the compound `CN1N(Cc2ccc(OCCCCOC[C@H](O)CO)c(F)c2F)C(=O)C(C(=O)Nc2ccc(C(F)(F)F)cc2-c2cc(C(F)(F)F)ncn2)=C(O)C12CCCC2` [Example 393], the IC50 worked out at 8.1 µM.

`CN(CCOc1ccc(CN2C(=O)C(C(=O)Nc3ccc(C(F)(F)F)cc3-c3cc(C(F)(F)F)ncn3)=C(O)C3(CCCC3)N2C)c(F)c1F)C1CCOC1` (centres unmarked) [Example 366]: the IC50 turned out to be 16.3 µM.

As for `COCCN(C)CCOCCOCCOCCOc1ccc(CN2C(=O)C(C(=O)Nc3ccc(C(F)(F)F)cc3-c3cc(C(F)(F)F)ncn3)=C(O)C3(CCCC3)N2C)c(F)c1F` [Example 431], the IC50 was 6.2 µM.

As for `CN1N(Cc2ccc(OCCN3CCN(CCO)CC3)c(F)c2F)C(=O)C(C(=O)Nc2ccc(C(F)(F)F)cc2-c2cc(C(F)(F)F)ncn2)=C(O)C12CCC2` [Example 360], the IC50 worked out at 23.1 µM.

With `CN1CCC(Oc2ccc(CN3C(=O)C(C(=O)Nc4ccc(C(F)(F)F)cc4-c4cc(C(F)(F)F)ncn4)=C(O)C4(CCC4)N3C)c(F)c2F)CC1` [Example 411], the IC50 was determined as 12.8 µM.

Consider `COCC(C)(C)N(C)CCOc1ccc(CN2C(=O)C(C(=O)Nc3ccc(C(F)(F)F)cc3-c3cc(C(F)(F)F)ncn3)=C(O)C3(CCCC3)N2C)c(F)c1F` [Example 372], for which the IC50 stood at 16.3 µM.

The values are drawn from patent publication US9499553B2 (CHUGAI SEIYAKU KABUSHIKI KAISHA, priority 2013, dated 2016).
